The source of these data is US7166607B2, “Substituted indoles” (AstraZeneca AB, priority 2002, dated 2007).

For one series, the target named is T1, rhCRTh2 (Homo sapiens, UniProt Q9Y5Y4).
T1 construct: expressed in transfected cells; host or cells: HEK cells (stably transfected, geneticin selection; expression induced with sodium butyrate); membrane preparation
T1 sequence (Q9Y5Y4 1-395): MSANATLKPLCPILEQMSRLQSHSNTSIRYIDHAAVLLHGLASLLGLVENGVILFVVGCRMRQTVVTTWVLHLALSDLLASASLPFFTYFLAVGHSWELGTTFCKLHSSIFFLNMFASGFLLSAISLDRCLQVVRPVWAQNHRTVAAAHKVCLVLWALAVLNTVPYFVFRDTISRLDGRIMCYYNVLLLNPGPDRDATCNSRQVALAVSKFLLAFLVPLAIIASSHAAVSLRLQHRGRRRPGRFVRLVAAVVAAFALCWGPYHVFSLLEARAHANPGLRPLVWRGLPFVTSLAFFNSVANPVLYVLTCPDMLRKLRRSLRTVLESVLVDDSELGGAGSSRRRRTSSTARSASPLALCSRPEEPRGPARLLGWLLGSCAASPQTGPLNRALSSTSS
The series can be described thus: Ligand Binding Assay ([3H]PGD2 SPA, HEK cell membranes). To be noted: [3H]PGD2 displacement, membranes of HEK cells expressing rhCRTh2/Gα16, SPA beads, 2 hours room temperature. Here is the method:
[^3H]PGD2 was purchased from Perkin Elmer Life Sciences with a specific activity of 100–210 Ci/mmol. All other chemicals were of analytical grade.
HEK cells expressing rhCRTh2/Gα16 were routinely maintained in DMEM containing 10% Foetal Bovine Serum (HyClone), 1 mg/ml geneticin, 2 mM L-glutamine and 1% non-essential amino acids. For the preparation of membranes, the adherent transfected HEK cells were grown to confluence in two layer tissue culture factories (Fisher, catalogue number TKT-170-070E). Maximal levels of receptor expression were induced by addition of […] sodium butyrate for the last 18 hours of culture. The adherent cells were washed once with phosphate buffered saline (PBS, 50 ml per cell factory) and detached by the addition of 50 ml per cell factory of ice-cold membrane homogenisation buffer [20 mM HEPES (pH 7.4), 0.1 mM dithiothreitol, 1 mM EDTA, 0.1 mM phenyl methyl sulphonyl fluoride and 100 μg/ml bacitracin]. […] The final pellet was re-suspended in 4 ml of membrane homogenisation buffer per cell factory used and the protein content determined. […]
All assays were performed in Corning clear bottomed, white 96-well NBS plates (Fisher). […] (The optimum coating concentrations were determined for each batch of membranes) The beads were pelleted by centrifugation (800×g for 7 minutes at 4° C.), washed once with assay buffer (50 mM HEPES pH 7.4 containing 5 mM magnesium chloride) and finally re-suspended in assay buffer at a bead concentration of 10 mg/ml.
Each assay contained 20 μl of 6.25 nM [^3H]PGD2, 20 μl membrane saturated SPA beads both in assay buffer and 10 μl of compound solution or 13,14-dihydro-15-keto prostaglandin D2 (DK-PGD2, for determination of non-specific binding, Cayman chemical company). […] The assay plate was incubated at room temperature for 2 hours and counted on a Wallac Microbeta liquid scintillation counter (1 minute per well).

SMILES strings stand for the structures.

As to `Cc1c(Sc2ccc(Cl)cc2)c2c(N3CCN(C(=O)OC(C)(C)C)CC3)cccc2n1CC(=O)O` [Example 23, 3-[(4-chlorophenyl)thio]-4-[4-[(1,1-dimethylethoxy)carbonyl]-1-piperazinyl]-2-methyl-1H-indole-1-acetic acid], the melting point was 173 °C. The IC50 on rhCRTh2 was 891 nM.

Compound `COc1cccc(Sc2c(C)n(CC(=O)O)c3ccc(C)cc23)c1` [Example 29, 3-[(3-methoxyphenyl)thio]-2,5-dimethyl-1H-indole-1-acetic acid] had a concentration for half-maximal inhibition (IC50) at rhCRTh2 of 4.47 nM.

The compound `Cc1ccc2c(c(Sc3nc(-c4ccccc4)cs3)c(C)n2CC(=O)O)c1S(C)(=O)=O` [Example 50, 2,5-dimethyl-4-(methylsulfonyl)-3-[(4-phenyl-2-thiazolyl)thio]-1H-indole-1-acetic acid] showed an IC50 on rhCRTh2 of 63.1 nM.

The compound `COC(=O)c1ccc2c(c1)c(Sc1ccc(Cl)cc1)c(C)n2CC(=O)O` [Example 53, 3-[(4-chlorophenyl)thio]-5-(methoxycarbonyl)-2-methyl-1H-indole-1-acetic acid] yielded a melting point of 221 to 223 °C.

In general, IC50 refers to the midpoint of a concentration-inhibition curve. A lower IC50 goes with inhibition by little substance. What is called melting point is the temperature, or range, at which the solid turns liquid.
